# Data taken from patent US11173196B2, “Vectors for expression of prostate-associated antigens” (Pfizer Inc., priority 2013, dated 2021).
# Where two headings read alike, the source gives them in different places.
# Key:
# rhesus PSMA = assay: IFNγ ELISPOT from PBMCs, rhesus PSMA adenovirus vaccine with subcutaneous anti-CTLA-4 antibody; assay type: in vivo, Indian rhesus macaques
# Description: Animal Treatment and Sample Collection. Five groups of male Indian rhesus macaques, seven (#1 to 7) per each test group, were immunized with an adenovirus encoding a rhesus PSMA modified polypeptide delivered by bilateral intramuscular injections (2× 5e10 V.P.). Immediately following the adenovirus injections, group 1 received vehicle, and groups 2 to 4 received bilateral subcutaneous injections of anti-CTLA-4 antibody (CP-675, 206) at doses 2× 25 mg, 2× 16.7 mg and 2× 8.4 mg respectively in proximity to the vaccine draining lymph node.
# Nine days after the immunization, peripheral blood mononuclear cells (PBMCs) were isolated from each animal and were subjected to an IFNγ ELISPOT assay to measure the rhesus PSMA specific T cell responses. Briefly, 4e5 PBMCs from individual animals were plated per well with pools of rhesus PSMA specific peptides (P1, P2, P3 or R1+R2 defined in Table 24A) or nonspecific control peptides (human HER2 peptide pool) each at 2 ug/ml in IFN[…] ELISPOT plates. The plates were incubated for 16 hrs at 37° C. and 5% CO2 and washed and developed after incubation as per manufacturer's instruction. The number of IFNγ spot forming cells (SFC) was counted by CTL reader. Each condition was performed in duplicates. The average of the duplicates from the background adjusted SFC of the rhesus PSMA specific peptide pools was normalized to the response in 1e6 PBMCs.
# IFNγ ELISPOT Assay Procedure. A capture antibody specific to IFNγ ([…]BD Bioscience, #51-2525kc) is coated onto a polyvinylidene fluoride (PVDF) membrane in a microplate overnight at 4° C. The plate is blocked with serum/protein to prevent nonspecific binding to the antibody. After blocking, effector cells (such as splenocytes isolated from immunized mice or PBMCs isolated from rhesus macaques) and targets (such as PSMA peptides from peptide library, target cells pulsed with antigen specific peptides or tumor cells expressing the relevant antigens) are added to the wells and incubated overnight at 37° C. in a 5% CO2 incubator. […]
# [1] = cited from earlier work
# [2] = cited from earlier work; remark: listed apart in the source
# 293 cells = assay: Expression of PSMA constructs in mammalian 293 cells by FACS; assay type: cell-based
# Description: The expression of the PSMA cytosolic, secreted, and modified antigens was determined by FACS. Mammalian 293 cells were transfected with the PJV7563 PMED vectors encoding the various immunogenic PSMA polypeptides. Three days later, the 293 cells were stained with mouse anti-PSMA antibody, followed with a fluorescent conjugated (FITC) rat anti-mouse secondary antibody.
substance,measurement,setting,value
"CP-675,206: fully human IgG2 anti-CTLA-4 monoclonal antibody, CAS 745013-59-6",vaccine induced immune response compared to vaccine alone,"rhesus PSMA; 16.7 mg subcutaneous (group 4), P=0.05",significantly enhanced
same,vaccine induced immune response compared to vaccine alone,"rhesus PSMA; 33.4 mg subcutaneous (group 3), P=0.004",significantly enhanced
same,vaccine induced immune response compared to vaccine alone,"rhesus PSMA; dose of 50 mg subcutaneous (group 2), P=0.001 by Student's T-test",significantly enhanced
"CP-870893: fully human agonistic CD40 monoclonal antibody, heavy and light chain SEQ ID NO: 40 and 41",dose-limiting toxicities,"[1]; human, in vivo, iv",grade 3 CRS and grade 3 urticaria
same,maximum tolerated dose (MTD),"[1]; phase I clinical study, intravenous infusion",0.2 mg/kg
5′ TCGTCGTTTTGTCGTTTTGTCGTT3′ [CpG7909],dose limiting toxicity,[2]; single dose subcutaneous,myalgia and constitutional effects
same,maximum tolerated dose (MTD),[2]; single dose subcutaneous,0.45 mg/kg
same,dose well tolerated with no clinical effects and no significant toxicity,[2]; single intravenous dose,up to 1.05 mg/kg
"human PSMA modified antigen (SEQ ID NO: 9): immunogenic polypeptide of amino acids 15-750 of human PSMA, membrane-bound, expressed from DNA construct in PJV7563 vector",Average mean fluorescent intensity,"293 cells; 293 cells transfected with PJV7563 vector, stained three days later with mouse anti-PSMA antibody",12270
same,expression on the cell surface,"293 cells; transfected 293 cells, FACS",expressed on the cell surface
